Experimental data as given in US11992478B2, “Methods of using androgen receptor inhibitors as cancer therapeutics” (THE TRUSTEES OF THE UNIVERSITY OF PENNSYLVANIA, priority 2020, dated 2024).

Assays:
[1] = system: mouse melanoma cells (YUMM1.7); test: Cell proliferation of mouse melanoma cells (YUMM1.7); assay type: cell-based
[2] = system: human melanoma cells (WM46); test: Cell proliferation of human melanoma cells (WM46); assay type: cell-based; conditions: for proliferation following addition of cations: WM46, over 6-days (FIG. 4D)
p-ERK (MAPK activation) = test: ERK phosphorylation / MAPK activation (Western blot); assay type: cell-based, human
ZIP9 = conditions: competitive binding assays; cited from earlier work
human WM46 melanoma = test: WM46 melanoma tumor growth in SCID mice; assay type: in vivo; conditions: for effect on tumors with engineered ZIP9 loss: either male or female mice
From the text: The tumor-promoting effects of testosterone on early prostate cancer are known, and inhibition of testosterone signaling is a first-line treatment. […] Here it is shown that targeting nonclassical testosterone signaling through ZIP9 is therapeutically useful for cancer (FIG. 13).

melanoma cells = test: Testosterone-induced hyperproliferation in melanoma cells (FIG. 10A); assay type: cell-based; conditions: 2 μM Bicalutamide (FIG. 10A)
[3] = system: cell lines derived from diverse human and murine tumor types; test: Testosterone-induced hyperproliferation in a panel of tumor cell lines (FIG. 11); assay type: cell-based
murine PDAC = test: Cell proliferation of murine PDAC cells; assay type: cell-based, mouse
[4] = system: primary human melanocytes; test: Cell proliferation of primary human melanocytes; assay type: cell-based; conditions: androgen treatment (FIG. 3A)
human PDAC = test: Cell proliferation of human PDAC cells; assay type: cell-based; conditions: human PDAC (FIG. 9C)
[5] = system: human WM46 melanoma cells; test: Cytosolic zinc influx with Fluo-Zin3 reporter; assay type: cell-based
[6] = system: WM46 human melanoma cells; test: Reverse Phase Protein Array of testosterone-treated melanoma cells; assay type: cell-based; conditions: RPPA, testosterone 0, 30, 60 minutes and 8 hours
From the text: (§1) (For clarity, this figure highlights only a subset of proteins from the entire data set of 450 proteins at 4 time points). […] FIG. 12B is a Western blot showing that testosterone promotes YAP nuclear translocation in WM46 cells. […] is used as control for the cytosolic fraction; PARP is used as a control for the nuclear fraction.
Testosterone induces a rapid, ZIP9 dependent, increase in free cytosolic zinc that is required for the hyperproliferation. Zinc is required for myriad cellular enzymes and associated biologic process making it difficult to hypothesize a priori, what signaling mechanism(s) downstream of ZIP9 mediate the testosterone induced hyperproliferation. A 450 element Reverse Phase Protein Array analysis of human melanoma cells treated with testosterone for 0, 30 minutes, 60 minutes and 8 hours (FIG. 12A) was performed.

YAP = YAP nuclear translocation (Western blot of fractions); assay type: cell-based, human; conditions: WM46, testosterone exposure (FIG. 12B)
From the text: as §1
When activated, YAP and the related transcription factor TAZ are dephosphorylated and move from the cytosol to the nucleus. […] YAP is a substrate for 14-3-3ε, which sequesters YAP in the cytosol. As 14-3-3ε, was one of the proteins most depleted by testosterone, it is believed, without being bound by theory, that 14-3-3ε loss promotes YAP translocation to the nucleus where it then induces expression of tumor-promoting genes. It is likely that the MAK/ERK changes also contribute to testosterone induced YAP activation, as MEK and ERK1/2 are also major positive YAP regulators.

[7] = male SCID mice, 20 mg/kg/day systemic daily (FIG. 13C)

With `c1ccc(CN(CCN(Cc2ccccn2)Cc2ccccn2)Cc2ccccn2)nc1` [TPEN, N,N,N′,N′-tetrakis (2-pyridinylmethyl)-1,2-ethanediamine] the “effect on testosterone stimulated proliferation” value ([1]; YUMM, zinc chelator plus testosterone (FIG. 7B)) was “blocked”, the “effect on proliferation on its own” value ([2]; WM46, without testosterone (FIG. 4C)) was “no significant effect” and the “effect on testosterone induced proliferation” value ([2]; WM46, zinc chelator plus testosterone, 6 days (FIG. 4C)) was “completely blocked”. The “effect on testosterone p-ERK induction” value (p-ERK (MAPK activation); with testosterone (FIG. 10B)) was “completely blocked”.
For `C[C@]12CCC(=O)C=C1CC[C@@H]1[C@@H]2CC[C@]2(C)C(=O)CC[C@@H]12` [androstenedione], the “ZIP9 binding specificity / affinity” value (ZIP9) is given as “relatively low affinity”.
For `CNC(=O)c1ccc(N2C(=S)N(c3cnc(C#N)c(C(F)(F)F)c3)C(=O)C23CCC3)cc1F` [apalutamide], the “effect on tumors with engineered ZIP9 loss” value (human WM46 melanoma) was “no significant effect”, the melanoma growth (human WM46 melanoma; female mice, systemic delivery) was “no effect” and the survival (human WM46 melanoma; [7]) was “extend survival”. For the same molecule, the tumor growth (human WM46 melanoma; [7]) was “inhibits tumor growth”, the “effect on testosterone driven increased proliferation” value ([2]; WM46 (FIG. 10E)) was “inhibit testosterone driven increased proliferation” and the “effect on testosterone dependent-increased proliferation” value ([2]; WM46, treated with 204 Apalutamide (so in the source)) was “reverted”.
With `CC(O)(CS(=O)(=O)c1ccc(F)cc1)C(=O)Nc1ccc(C#N)c(C(F)(F)F)c1` (stereo not shown) [bicalutamide] the “effect on cell proliferation in the absence of testosterone” value (melanoma cells) was “no effect”, the “effect on tumors with engineered ZIP9 loss” value (human WM46 melanoma) was “no significant effect” and the tumor growth (human WM46 melanoma; female mice, 30 mg/kg/day via oral gavage (FIG. 13A)) was “no effect”. The “cell lines in which testosterone-induced hyperproliferation is blocked” value ([3]; FIG. 11) was 10/12.
In the case of `C[C@]12CCC(=O)C[C@@H]1CC[C@@H]1[C@@H]2CC[C@]2(C)[C@@H](O)CC[C@@H]12` [dihydrotestosterone], the “ZIP9 binding specificity / affinity” value (ZIP9) is listed as “relatively low affinity”.
For `[Fe]` [iron], the “proliferation following addition of cations” value [2] was “Only zinc promoted proliferation”.
For `[Mn+2]` [manganese], the “proliferation following addition of cations” value [2] was “Only zinc promoted proliferation”.
For `C[C@]12CC[C@H]3[C@@H](CCC4=CC(=O)CC[C@@]43C)[C@@H]1CC[C@@H]2O` [testosterone], the cellular proliferation ([1]; mouse melanoma cells, androgen treatment (FIG. 3A)) was “markedly increased cellular proliferation”, the “proliferation of isogenic clones lacking ZIP9” value ([1]; ΔZIP9 YUMM (FIG. 7B)) was “no effect” and the “response of ΔZIP9 cells in vitro” value (murine PDAC; mPDAC ΔZIP9 (FIG. 9E)) was “do not respond”. The proliferation (murine PDAC; murine PDAC (FIG. 9C)) was “promotes proliferation”, the “ZIP9 binding specificity / affinity” value (ZIP9) was “highly specific” and the cellular proliferation [4] was “markedly increased cellular proliferation”. The “proliferative response to testosterone” value ([3]; MCF7 cells) was “did not respond”, the “proliferative response to testosterone” value ([3]; U87 cells) was “did not respond” and the proliferation (human PDAC) was “promotes proliferation”. The “duration of sustained elevation in free cytosolic zinc” value ([5]; WM46, in the presence of the androgen (FIG. 4B)) was “at least 2 days”, the zinc influx ([5]; WM46, over 5 minutes (FIG. 4A)) was “rapid zinc influx” and the “effect on zinc in cells lacking ZIP9” value ([5]; ΔZIP9 WM46 (FIG. 7C)) was “no significant effect”. For the same molecule, the 14-3-3c protein expression [6] was “downregulated”, the “CDKN2A (p16) protein expression” value [6] was “downregulated” and the YAP1 protein expression [6] was “Upregulated”. For the same molecule, the “phosphorylated ERK (T202; Y204) level” value [6] was “Upregulated”, the “time to YAP movement from cytoplasm to nucleus” value (YAP) was 30 to 60 min and the cellular proliferation [2] was “markedly increased cellular proliferation”. For the same molecule, the “concentration of maximum proliferative response” value [2] was 75 nM, the “proliferation of isogenic clones lacking ZIP9” value [2] was “no effect” and the ERK phosphorylation (p-ERK (MAPK activation); testosterone treatment (FIG. 3B)) was “increases ERK phosphorylation”.
With `[Zn+2]` [zinc] the “proliferation following addition of cations” value [2] was “promoted proliferation”.
